Patent publication US20190224153A1, “L-DOPA DERIVATIVES FOR THE TREATMENT OF NEUROLOGICAL DISEASES” (BERLIREM GMBH, priority 2016, published 2019)

Legend:
[1] = Enzymatic cleavage of L-DOPA esters in human plasma (ex vivo); settings: pH 7.4, 37° C., after 2 hours, n=3
Description: After 2, 15, 30, 45, 60 and 120 min 200 μL sample were taken, immediately deproteinized (200 μL 0.4N PCA), precipitated (200 μL 0.1% formic acid) and centrifuged. […] For purpose of comparison L-Dopa Ethyl Ester was investigated under same conditions.

[2] = Stability against hydrolytic cleavage, aprotic versus aqueous solutions; format: physicochemical; settings: aprotic solutions compared to aqueous solutions
Excerpt: It is an additional aspect of the invention that the high solubility of the L-DOPA ester in aprotic solvents suitable for parenteral application (such as e.g. N-Methylpyrrolidone, Polysorbat 80, Dimethylacetamide, Solutol HS 15, Glycerol, Ethanol) also relates to L-DOPA esters known before the application date of WO 2016/155888 A1, in particular L-DOPA ethyl ester described in WO 2012/079072 A2 (Heller et al.). […] Moreover the stability is much higher even at pH-values of 5-8. L-DOPA ethyl ester solutions in aprotic solvents suitable for parenteral application could therefore solve tolerability problems known from earlier attempts to use L-DOPA ethyl ester in the treatment of neurological diseases.

SMILES | converted to L-Dopa [1] [%] | stability against hydrolytic cleavage [2]
N[C@@H](Cc1ccc(O)c(O)c1)C(=O)OCC(O)CO (stereo partly drawn) [L-DOPA Glycerin ester] | 60 | –
CCOC(=O)[C@@H](N)Cc1ccc(O)c(O)c1 [L-DOPA Ethyl Ester] | 50 | higher stability against hydrolytic cleavage compared to aqueous solutions
